Settings: 293.15 K, Liquid, Vibrating tube method

CCCCCCCCCC [decane]
Settings | mass density [kg/m3]
28146 kPa | 749.4
28177 kPa | 749.5
28205 kPa | 749.5
28236 kPa | 749.5
28261 kPa | 749.4
28289 kPa | 749.5
28321 kPa | 749.5
28349 kPa | 749.5
28373 kPa | 749.5
28405 kPa | 749.5
28425 kPa | 749.6
28454 kPa | 749.5
28482 kPa | 749.6
28507 kPa | 749.6
28527 kPa | 749.6
28552 kPa | 749.5
28597 kPa | 749.7
28622 kPa | 749.7
28643 kPa | 749.6
28663 kPa | 749.8
28687 kPa | 749.7
28712 kPa | 749.7
28749 kPa | 749.8
28770 kPa | 749.7
28807 kPa | 749.8
28836 kPa | 749.7
28865 kPa | 749.9
28886 kPa | 749.9
28919 kPa | 749.9
28945 kPa | 749.9
28974 kPa | 749.9
28999 kPa | 749.9
29029 kPa | 749.9
29050 kPa | 749.9
29084 kPa | 749.9
29114 kPa | 750
29149 kPa | 749.9
29175 kPa | 750
29213 kPa | 750
29232 kPa | 750.1
29263 kPa | 750.1
29295 kPa | 750.1
29326 kPa | 750.1
29350 kPa | 750.1
29376 kPa | 750.2
29396 kPa | 750.1
29419 kPa | 750.1
29439 kPa | 750.2
29470 kPa | 750.3
29494 kPa | 750.2
29518 kPa | 750.3
29549 kPa | 750.2
29574 kPa | 750.3
29600 kPa | 750.3
29620 kPa | 750.3
29645 kPa | 750.3
29668 kPa | 750.3
29701 kPa | 750.3
29724 kPa | 750.4
29760 kPa | 750.4
29780 kPa | 750.5
29804 kPa | 750.3
29828 kPa | 750.5
29852 kPa | 750.4
29877 kPa | 750.4
29904 kPa | 750.4
29931 kPa | 750.5
29960 kPa | 750.4
29996 kPa | 750.5
30021 kPa | 750.6
30041 kPa | 750.6
30078 kPa | 750.6
30098 kPa | 750.5
30123 kPa | 750.6
30144 kPa | 750.7
30168 kPa | 750.7
30194 kPa | 750.7
30219 kPa | 750.7
30248 kPa | 750.7
30273 kPa | 750.8
30294 kPa | 750.7
30328 kPa | 750.8
30358 kPa | 750.8
30393 kPa | 750.9
30419 kPa | 750.8
30455 kPa | 750.9
30479 kPa | 750.8
30506 kPa | 750.8
30546 kPa | 750.8
30560 kPa | 750.8
30576 kPa | 750.9
30591 kPa | 750.9
30604 kPa | 751
30620 kPa | 750.9
30641 kPa | 750.9
30659 kPa | 750.9
30682 kPa | 751
30703 kPa | 751.1
30721 kPa | 751
30739 kPa | 751
30752 kPa | 751
30771 kPa | 751
30795 kPa | 751
30813 kPa | 751.1
30826 kPa | 751.1
30845 kPa | 751.1
30866 kPa | 751
30887 kPa | 751.1
30908 kPa | 751.1
30924 kPa | 751
30942 kPa | 751.1
30955 kPa | 751.1
30977 kPa | 751.1
30995 kPa | 751.1
31014 kPa | 751.1
31028 kPa | 751.2
31044 kPa | 751.1
31057 kPa | 751.1
31074 kPa | 751.2
31090 kPa | 751.2
31106 kPa | 751.2
31130 kPa | 751.3
31147 kPa | 751.3
31168 kPa | 751.3
31188 kPa | 751.3
31207 kPa | 751.3
31224 kPa | 751.3
31243 kPa | 751.2
31260 kPa | 751.3
31279 kPa | 751.3
31295 kPa | 751.4
31314 kPa | 751.3
31339 kPa | 751.3
31356 kPa | 751.4
31375 kPa | 751.4
31391 kPa | 751.3
31412 kPa | 751.3
31425 kPa | 751.4
31441 kPa | 751.4
31455 kPa | 751.5
31472 kPa | 751.3
31489 kPa | 751.4
31503 kPa | 751.5
31520 kPa | 751.5
31542 kPa | 751.4
31564 kPa | 751.5
31581 kPa | 751.5
31601 kPa | 751.5
31615 kPa | 751.4
31636 kPa | 751.4
31651 kPa | 751.6
31670 kPa | 751.5
31687 kPa | 751.5
31710 kPa | 751.7
31724 kPa | 751.8
31738 kPa | 751.5
31755 kPa | 751.5
31774 kPa | 751.6
31797 kPa | 751.5
31811 kPa | 751.6
31831 kPa | 751.7
31847 kPa | 751.7
31864 kPa | 751.7
31885 kPa | 751.7
31907 kPa | 751.7
31928 kPa | 751.6
31944 kPa | 751.6
31965 kPa | 751.9
31989 kPa | 751.7
32005 kPa | 751.8
32027 kPa | 751.7
32043 kPa | 751.7
32061 kPa | 751.8
32081 kPa | 751.9
32100 kPa | 751.8
32124 kPa | 751.9
32148 kPa | 751.9
32167 kPa | 751.8
32191 kPa | 751.8
32207 kPa | 751.9
32230 kPa | 751.9
32246 kPa | 751.8
32266 kPa | 751.9
32282 kPa | 751.8
32299 kPa | 751.9
32324 kPa | 752
32345 kPa | 752
32362 kPa | 751.9
32379 kPa | 751.9
32400 kPa | 751.9
32420 kPa | 752
32445 kPa | 752
32462 kPa | 751.9
32478 kPa | 752
32498 kPa | 752
32520 kPa | 752.1
32537 kPa | 751.9
32555 kPa | 752.1
32572 kPa | 752.1
32592 kPa | 752.2
32612 kPa | 752
32637 kPa | 752.2
32657 kPa | 752.1
32673 kPa | 752.1
32690 kPa | 752.1
32716 kPa | 752.1
32733 kPa | 752.2
32750 kPa | 752.1
32770 kPa | 752.1
32790 kPa | 752.2
32808 kPa | 752.2
32825 kPa | 752.3
32848 kPa | 752.2
32865 kPa | 752.4
32888 kPa | 752.3
32911 kPa | 752.2
32930 kPa | 752.4
32953 kPa | 752.4
32972 kPa | 752.4
32993 kPa | 752.3
33014 kPa | 752.3
33038 kPa | 752.3
33061 kPa | 752.4
33080 kPa | 752.4
33103 kPa | 752.3
33132 kPa | 752.4
33150 kPa | 752.5
33180 kPa | 752.4
33203 kPa | 752.4
33218 kPa | 752.4
33239 kPa | 752.5
33260 kPa | 752.3
33279 kPa | 752.4
33304 kPa | 752.5
33334 kPa | 752.5
33349 kPa | 752.4
33373 kPa | 752.6
33397 kPa | 752.7
33416 kPa | 752.7
33440 kPa | 752.5
33465 kPa | 752.6
33484 kPa | 752.5
33514 kPa | 752.6
33536 kPa | 752.6
33555 kPa | 752.6
33576 kPa | 752.6
33606 kPa | 752.7
33631 kPa | 752.8
33649 kPa | 752.6
33667 kPa | 752.8
33692 kPa | 752.7
33710 kPa | 752.8
33738 kPa | 752.8
33760 kPa | 752.7
33791 kPa | 752.9
33807 kPa | 752.8
33829 kPa | 752.8
33848 kPa | 752.8
33896 kPa | 752.8
33919 kPa | 752.9
33934 kPa | 752.9
33961 kPa | 753
33976 kPa | 752.9
33992 kPa | 752.9
34010 kPa | 752.9
34029 kPa | 752.9
34050 kPa | 753
34069 kPa | 753
34090 kPa | 752.9
34112 kPa | 753
34129 kPa | 753.1
34148 kPa | 753
34176 kPa | 753
34198 kPa | 752.9

— the NIST ThermoML archive (doi:10.1021/je800110r)
